This is an account of results in ChEMBL document CHEMBL1955809, “Discovery of GS-9256: a novel phosphinic acid derived inhibitor of the hepatitis C virus NS3/4A protease with potent clinical activity” (Bioorg Med Chem Lett, 2012).

Data set [1] can be described thus: Permeability from apical to basolateral side in human Caco2 cells. Format: ADME, cell-based. Particulars: Caco-2, read-out: permeability. Background: Caco-2 cells form a polarised layer with tight junctions and transporters.
Data set [2] is described as follows: Dissociation constant, pKa of the compound. Format: physicochemical.
Data set [3] is described as follows: Half life in dog at 1 mg/kg, iv. The class given is ADME, organism-based, Canis lupus familiaris. Conditions: in vivo. Details: dose 1 mg/kg, route intravenous.
Data set [4] can be described thus: Oral bioavailability in dog at 4 mg/kg. Format: ADME, organism-based, Canis lupus familiaris. Particulars: in vivo.
Data set [5] relates to Hepatitis C virus. In words: Inhibition of HCV1b NS3/4A protease. Conditions: Hepatitis C virus. Details: species or system Hepatitis C virus subtype 1b.
A short description of data set [6]: Drug excretion in iv dosed bile-cannulated rat bile assessed as parent compound level after 4 hrs. Particulars: read-out: Ae. Format: ADME, organism-based.
In another data set the test system is Canis familiaris. In words: AUC in dog at 1 mg/kg, iv and 4 mg/kg, po. The class given is ADME, organism-based, Canis lupus familiaris, Plasma. Particulars: in vivo.
The nature of data set [7]: Volume of distribution at steady state in dog at 1 mg/kg, iv and 4 mg/kg, po. Particulars: in vivo, read-out: Vdss. The class given is ADME, organism-based, Canis lupus familiaris.
Data set [8] in a line: Permeability from basolateral to apical side in human Caco2 cells. Format: ADME, cell-based. Conditions: Caco-2, read-out: permeability.
Data set [9] is described as follows: Clearance in dog at 1 mg/kg, iv and 4 mg/kg, po. Conditions: in vivo. Format: ADME, organism-based, Canis lupus familiaris.
For data set [10], the system named is Hepatitis C virus. The data set is described as follows: Antiviral activity against HCV genotype 1b infected in human Huh cells expressing luc gene by replicon assay. Format: functional, organism-based, Hepacivirus hominis. Background: In antiviral work, replicon cells carry a viral genome segment that copies itself.

In the case of `C=C[C@@H]1C[C@]1(NC(=O)[C@@H]1C[C@@H](Oc2cc(-c3csc(NC(C)C)n3)nc3cc(OC)ccc23)CN1C(=O)[C@@H](NC(=O)OC1CCCC1)C(C)(C)C)P(=O)(O)Cc1c(F)cccc1F`, the Papp A→B in data set [1] came to 1.22 ×10⁻⁶ cm/s. For the same compound, the pKa (as a rule, the pH at which an ionisable group is half protonated) in data set [2] came out at 2.7. Besides, the half-life (in general, the time in which the quantity being followed falls by half) in data set [3] is 1.6 h. In addition, in data set [4], the bioavailability (commonly dose-corrected exposure relative to a reference, in per cent) stood at 8%. Further, the concentration for half-maximal inhibition (IC50) (in general, the point on the concentration scale where inhibition reaches its midpoint) in the data set with Hepatitis C virus [5] was 4 nM. Further, in [6], the dose excreted at 4 h was above 90%. In addition, in the data set on Canis familiaris, the exposure (AUC) – broadly, concentration integrated over time – came out at 3.12 µM·h. In addition, in [7], the Vd was 0.31 L/kg. The Papp B→A in data set [8] is 10.6 ×10⁻⁶ cm/s. The clearance in [9] is 6.17 mL/min/kg. Moreover, in the data set with Hepatitis C virus [10], the response was half-maximal at 74 nM (EC50).
